Measured values: US20230348401A1, “Inhibitors of Glucose-6-phosphate Dehydrogenase and Uses Thereof” (The Trustees of Princeton University, priority 2020, published 2023)

Tests used:
T cell lineages = assay: NADPH and NADP+ pools across cell types (LC-MS); format: cell-based
Description: (§1) For suspension cells (including T cells and red blood cells), 2×10^6 cells were seeded in 1 mL of media in 12-well plates and incubated with appropriate media, which included isotope tracers and/or chemical inhibitors and/or cytokines, as described. For all experiments involving small molecule agents, DMSO concentrations were <0.2%. After 2 hours, cell suspensions were transferred to 1.5 mL tubes and pelleted (30 seconds, 6000 rpm, room temperature). Media was removed by aspiration and metabolome extraction was performed by the addition of 75 µL of ice cold solvent (40:40:20 ACN:MeOH:H2O + 0.5%FA). After a 5-minute incubation on ice, acid was neutralized by the addition of NH4HCO3. After centrifugation (15 minutes, 16000 rpm, 4° C.), the resulting supernatant was transferred to a clean tube, frozen on dry ice and kept at -80° C. until LC-MS analysis.
Metabolites were analyzed using a quadrupole-orbitrap mass spectrometer (Q Exactive Plus, Thermo Fisher Scientific, Waltham, MA), coupled to hydrophilic interaction chromatography (HILIC) with LC separation on a XBridge BEH Amide column (Waters), or a stand-alone orbitrap (Thermo-Fisher Exactive) coupled to reversed-phase ion-pairing chromatography with LC separation on a HSS-T3 column (Waters). […]

RBCs = assay: NADPH pools in red blood cells; format: cell-based, mouse
Description: To isolate red blood cells, mice were euthanized by cervical dislocation followed by collection of approximately 200 µL whole blood via cardiac puncture into tubes containing 7.5 µL heparin (1000USP/mL, H3393, Sigma Aldrich). The cells were incubated on ice for approximately 5 minutes, then centrifuged (5 minutes, 500 rpm, 4° C.) followed by aspiration of the serum and buffy coat layer. Cells were gently resuspended in PBS and then pelleted (5 minutes, 500 rpm, 4° C.) three times. Cells were then resuspended in RPMI media and used immediately for experiments.
as §1, with “After centrifugation (15 minutes, 16000 rpm, 4° C.), the resulting supernatant was transferred to a clean tube, frozen on dry ice and kept at -80° C. until LC-MS analysis.” left out

naïve CD8+ T cells = assay: T cell activation, proliferation and viability (flow cytometry); format: cell-based, mouse
Description: The functional consequences of oxPPP inhibition were next explored using G6PDi-1 in T cells. To test the effect of G6PDi-1 on activation and proliferation, naïve CD8+ T cells were isolated from spleen and activated in vitro with plate-bound αCD3/αCD28 and IL-2. Activation was evaluated by flow cytometry analysis of surface markers CD69 (levels rapidly rise upon activation) and CD25 (usually peaking at 24-48 hours post-activation), and cell size, which increases over the first 24 hours post-activation. To quantify proliferation, naïve cells were stained with […] (CTV) and dye dilution was measured by flow cytometry at day 4 post-activation.
To analyze cell surface markers expression, cells were collected, washed with PBS and stained with the viability dye Live/Dead Aqua. Cells were then washed with staining buffer and stained for surface markers: CD4 (APC-Cy7, clone RM4-5,), CD8a (PerCP-Cy5.5, clone 53-6.7), CD25 (APC, clone PC61), CD44 (PE-Cy7, clone IM7), CD62L (PE, clone MEL-14) CD69 (FITC, clone H1.2F3), for T cells; CD11b (APC, clone M1/70 and F4/80 (FITC, clone BM8) for macrophages.
To analyze proliferation, naïve CD8 T cells were stained with CTV dye and either maintained in a naïve state with IL7 or stimulated with αCD3/αCD28 + recombinant IL-2 in the presence of increasing concentrations of G6PDi-1. Cells were refed at days 2 and 3 post-stimulation, and proliferation was measured at day 4 post-activation. Cells were collected, washed with staining buffer and stained with the viability dye propidium iodide.

G6PD = G6PD (Homo sapiens, UniProt P11413); assay: 2H transfer from 1-2H-glucose to NADPH active hydride and C16:0 in HCT116 cells; format: cell-based; set-up: endogenous in cells; host or cells: HCT116; conditions: HCT116 cells
Sequence of G6PD (P11413 whole entry): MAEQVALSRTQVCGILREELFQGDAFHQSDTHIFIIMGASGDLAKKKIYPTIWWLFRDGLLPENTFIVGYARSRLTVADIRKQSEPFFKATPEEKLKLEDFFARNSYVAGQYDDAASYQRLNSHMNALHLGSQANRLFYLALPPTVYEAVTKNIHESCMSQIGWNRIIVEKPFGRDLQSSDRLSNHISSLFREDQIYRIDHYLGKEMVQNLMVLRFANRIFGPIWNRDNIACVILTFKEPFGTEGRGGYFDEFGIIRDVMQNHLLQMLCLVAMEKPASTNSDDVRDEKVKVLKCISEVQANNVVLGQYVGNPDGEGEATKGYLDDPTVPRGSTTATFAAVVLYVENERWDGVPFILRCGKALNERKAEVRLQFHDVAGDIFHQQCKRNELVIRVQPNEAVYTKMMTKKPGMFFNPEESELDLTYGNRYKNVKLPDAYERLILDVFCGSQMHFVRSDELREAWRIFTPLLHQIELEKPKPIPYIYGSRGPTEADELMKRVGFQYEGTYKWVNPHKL
Excerpt: Direct Monitoring of NADPH Produced by the G6PD Reaction. […] NADPH production is compartmentalized, and occurs through reduction of its redox partner NADP^+. G6PD is one of the main enzymes that generates NADPH, and catalyzes the transfer of electrons (in the form of hydride) from glucose-6-phosphate to NADP^+. By installing a deuterium at the “one” position of glucose (1-^2H-glucose), the transfer of that deuterium to the active hydride of NADPH via glucose-6-phosphate can be specifically monitored. Also, a major use of cytosolic NADPH is fat synthesis. Transfer of ^2H from glucose via NADPH into free palmitate (C16:0) requires two NADPH per two-carbon unit addition during its synthesis.
Next, G6PD mediated hydride transfer to NADPH was directly monitored. Specifically, transfer of deuterium from 1-^2H-glucose, via glucose-6-phosphate, to the NADPH’s active hydride was monitored (FIG. 1B). […] The impacted step was G6PD, as no change in substrate (G6P) labeling was observed (FIG. 1E). A major use of cytosolic NADPH is fat synthesis. Transfer of ^2H from glucose via NADPH into palmitate (C16:0), which requires two NADPH per 2-carbon unit addition during its synthesis, was quantified (FIG. 1B).
For all experiments involving stable isotope tracers (e.g., 1-^2H-glucose), the isotope tracer nutrient was substituted for unlabeled nutrient at the same concentration normally found in the base media for a given cell type (e.g., DMEM for HCT116, RPMI for T cells, etc.). In addition, dialyzed FBS was used as a supplement in place of FBS.
Cytosolic NADPH sources were traced, and redox active hydride labeling was calculated, using a previously described strategy. 1-^2H-glucose (which directly traces G6PD) or 3-^2H-glucose (which directly traces PGD) were used for tracing oxPPP contribution to NADPH; 4-^2H-glucose for ME1; [2,3,3,4,4-^2H5]-glutamine, for both ME1 and IDH1; and D2O, to account for solvent exchange.
For analysis of intracellular metabolites by LC-MS, adherent cell lines were plated and grown to 80% confluency in 6-well plates. At the start of an experiment, the appropriate media was added to cells, which included isotope tracers and/or chemical inhibitors as described. Cells were incubated at 37° C. at 5% CO2 for 2 hours (unless otherwise noted). For all experiments involving small molecule agents, DMSO concentrations were <0.2%. After 2 hours, media was removed by aspiration and metabolome extraction was performed (without any wash steps) by the addition of 800 µL of ice cold solvent (40:40:20 acetonitrile:methanol:water + 0.5% formic acid). After a 1-minute incubation on ice, the extract was neutralized by the addition of NH4HCO3 (15% w/v). The samples were incubated at -20° C. for approximately 30 minutes, at which point the wells were scraped and the extract transferred to Eppendorf tubes and centrifuged (15 minutes, 16000 rpm, 4° C.). The resulting supernatant was frozen on dry ice and kept at -80° C. until LC-MS analysis.

## N#Cc1cc(Nc2ncc3c(n2)CCCCC3=O)cs1 [Compound 2, 4-([5-oxo-6H,7H,8H,9H-cyclohepta[d]pyrimidin-2-yl]amino)thiophene-2-carbonitrile]
T cell lineages
  decrease in NADPH: > 10 fold
  increase in NADP+: 5-10 fold
RBCs
  sensitivity of NADPH pools: fairly sensitive
naïve CD8+ T cells; CD4+ T cells
  proliferation of CD4+ T cells: minimal effect
naïve CD8+ T cells; CD8+ T cells
  viability: minimal effect
naïve CD8+ T cells; CD8+ T cells, day 4 post-activation
  activation-dependent proliferation: minimal effect
naïve CD8+ T cells; CD8+ T cells, αCD3/αCD28 and IL-2
  upregulation of activation markers and activation-dependent increase in cell size: did not alter
G6PD; dose-response
  2H transfer from 1-2H-glucose to downstream product C16:0: dose-dependent decrease
G6PD; read-out: IC50, decrease in 2H transfer from 1-2H-glucose to NADPH's active hydride
  IC50: ~31 µM
